Article PMC12977544, “Phenotypic high-throughput screening identifies modulators of gut microbial choline metabolism” (mBio, 2026)
In brackets after ≈: the same amount, converted by molar mass. Like-named read-outs stand apart in the source and are kept apart here.

Tests used:
E. coli MS 200-1 [1] = test: TMA inhibition in bacterial whole cells (LC–MS/MS of d9-TMA from d9-choline); assay type: cell-based, Escherichia coli MS 200-1; settings: 1 mM d9-choline in PBS, 75 min, 37°C, anaerobic
Protocol: (§1) For TMA inhibition assays, E. coli and P. mirabilis were grown in NCE medium supplemented with 20 mM choline chloride, A. hydrogenalis was grown in MEGA medium supplemented with 3 mM choline chloride, and C. sporogenes was grown in BHI medium supplemented with 20 mM of choline chloride to induce expression of the cut gene cluster. For MIC assays, all bacteria strains were grown in MEGA medium.
(§2) Compounds were stored as 10 mM DMSO stocks at –20°C and diluted in DMSO to prepare varying concentrations of inhibitors for testing. Bacteria were grown anaerobically overnight in media supplemented with choline as described above. Cells were pelleted and resuspended in PBS, and d9-choline chloride was added to a final concentration of 1 mM. The final OD600 of the PBS cell resuspensions is as follows: 0.4 (E. coli), 0.15–0.2 (P. mirabilis), 0.2 (C. sporogenes), and 0.4 (A. hydrogenalis). The resuspended cells were added to 96-well plates containing inhibitors (final concentration of 1% DMSO, with final inhibitor concentrations ranging between 0 and 325 µM). The plates were sealed and incubated for 75 min (or 90 min for P. mirabilis) at 37°C. Following incubation, the plates were removed from the anaerobic chamber and analyzed immediately or kept at –20°C until LC–MS/MS analysis. Each inhibitor concentration was tested in triplicate. EC50 values were calculated with GraphPad Prism by fitting the log(inhibitor) vs response—Variable slope (four-parameter) model for non-linear regression.
(§3) Samples were kept frozen until analysis and kept cold on ice during handling due to the volatility of TMA. Bacterial cell resuspensions in PBS were diluted 100-fold in LCMS-grade acetonitrile with 0.1% formic acid to lyse cells, precipitate proteins, and extract metabolites. Samples were centrifuged at 4,000 rpm for 10 min at 4°C to pellet proteins. The supernatants were then further diluted 20-fold in LCMS-grade acetonitrile with 0.1% formic acid, and the resulting solution was analyzed by LC–MS/MS.
(§4) LC–MS/MS analysis was performed on an Agilent 1290/6470 Triple Quadrupole LC–MS instrument (Agilent Technologies) using electrospray ionization. The mass spectrometer was operated in multiple reaction monitoring (MRM) mode with positive ionization monitoring. The precursor–product ion pairs used in MRM mode were as follows: m/z 69.1m/z → 49.1 (d9-TMA) and m/z 113.2 m/z → 69.1 (d9-choline). The capillary voltage was set to 4.0 kV, and the fragmentor voltage was set to 30 V (d9-TMA) and 115 V (d9-choline). The collision energy for the precursor–product ion pairs was set to 29 V (d9-TMA) and 21 V (d9-choline). MS^1 resolution was set to wide and MS^2 resolution to unit. The drying gas temperature was maintained at 250°C, with a flow rate of 11 L/min and a nebulizer pressure of 45 psi. The time filter width used was 0.07 min. The injection volume of all samples was 1 μL. Samples were injected onto InfinityLab Poroshell 120 (Agilent) HILIC columns (2.7 μm, 100 mm × 2.1 mm, 100 Å) preceded by InfinityLab Poroshell 120 HILIC guard columns (2.1 mm, 1.9µm UHPLC guard). The LC conditions on the binary pump were as follows: a gradient of 5–35% A increasing over 1.95 min (1.2 mL/min), a gradient of 35–5% A decreasing over 0.05 min (1.6 mL/min), and held at 5% A for 0.5 min (2 mL/min). […] Solvent A was 10 mM ammonium formate with 0.1% formic acid, and solvent B was acetonitrile with 0.1% formic acid. Data analysis was performed with Mass Hunter Workstation Data Acquisition and Qualitative Analysis software (Agilent Technologies).

[2] = test system: Clostridium sporogenes ATCC 15579; test: as above; assay type: cell-based; settings: 1 mM d9-choline in PBS, 75 min, 37°C, anaerobic
Protocol: as §1, §2, §3, §4

[3] = test system: Proteus mirabilis ATCC 29906; test: as above; assay type: cell-based; settings: 1 mM d9-choline in PBS, 90 min, 37°C, anaerobic; for EC50: read-out: EC50 in whole cells, P. mirabilis (TMA inhibition)
Protocol: as §1, §2, §3, §4

[4] = test system: Anaerococcus hydrogenalis DSM 7454; test: as above; assay type: cell-based; settings: 1 mM d9-choline in PBS, 75 min, 37°C, anaerobic
Protocol: as §1, §2, §3, §4

[5] = test system: choline-metabolizing gut bacteria (E. coli, P. mirabilis, C. sporogenes, A. hydrogenalis); test: TMA inhibition across the panel of four choline-metabolizing gut bacteria; assay type: cell-based; settings: compared with compound 6
From the text: We then used secondary assays to prioritize scaffolds that had broad-spectrum TMA inhibitory activity against additional choline-metabolizing gut bacteria. For this, we used Clostridium sporogenes ATCC 15579, a human gut isolate that is able to efficiently ferment choline in addition to other carbon sources, as well as Anaerococcus hydrogenalis DSM 7454 and Proteus mirabilis ATCC 29906, human gut isolates previously identified to metabolize choline in vitro ([61]). In particular, E. coli MS 200-1 and C. sporogenes ATCC 15579 have been used in gnotobiotic studies to investigate the effects of bacterial choline metabolism on the host and microbiome ([46], [61], [62]). These strains are representative of taxa frequently detected in humans ([63]) and, together with E. coli, are representative of the major phyla and genera in which TMA producers have been detected across human gut isolates ([48]). Importantly, this group of strains included both gram-positive and gram-negative bacteria. Gram-negative bacteria have an additional outer membrane layer and associated efflux pumps ([29]), which typically decreases small molecule permeability compared to gram-positive bacteria. It also included bacteria with cut gene cluster architectures that differ in the number and types of microcompartment proteins encoded and in the size of the CutC enzyme ([48]). We hypothesized that testing the inhibitors against multiple choline-utilizing gut bacteria would increase the likelihood of identifying compounds with broad-spectrum activity.
as §2

[6] = test system: Clostridium sporogenes ATCC 15579; test: MIC in MEGA medium; assay type: cell-based; settings: anaerobic, 37°C, 24 h, up to 200 µM
Protocol: as §1

[7] = test system: Proteus mirabilis ATCC 29906; test: MIC in MEGA medium; assay type: cell-based; settings: anaerobic, 37°C, 24 h, up to 200 µM, read-out: MIC in MEGA medium, P. mirabilis
Protocol: as §1

[8] = test system: Bacteroides caccae ATCC 43185; test: MIC in MEGA medium; assay type: cell-based; settings: anaerobic, 37°C, 24 h, up to 200 µM, read-out: MIC in MEGA medium, B. caccae
Protocol: as §1

[9] = test system: Anaerococcus hydrogenalis DSM 7454; test: MIC in MEGA medium; assay type: cell-based; settings: anaerobic, 37°C, 24 h, up to 200 µM
Protocol: as §1

[10] = test system: Eubacterium rectale ATCC 33656; test: MIC in MEGA medium; assay type: cell-based; settings: anaerobic, 37°C, 24 h, up to 200 µM; read-out: MIC in MEGA medium, E. rectale
Protocol: as §1

[11] = test system: Bacteroides thetaiotaomicron VPI-5482; test: MIC in MEGA medium; assay type: cell-based; settings: anaerobic, 37°C, 24 h, up to 200 µM, read-out: MIC in MEGA medium, B. thetaiotaomicron
Protocol: as §1

[12] = test system: Collinsella aerofaciens ATCC 25986; test: MIC in MEGA medium; assay type: cell-based; settings: anaerobic, 37°C, 24 h, up to 200 µM
Protocol: as §1

[13] = test system: Bacteroides ovatus ATCC 8483; test: MIC in MEGA medium; assay type: cell-based; settings: anaerobic, 37°C, 24 h, up to 200 µM, read-out: MIC in MEGA medium, B. ovatus
Protocol: as §1

[14] = test system: panel of commensal bacterial strains; test: MIC against panel of nine gut commensal bacteria; settings: of 9 bacterial strains tested
E. coli MS 200-1 [15] = test: MIC in MEGA medium; assay type: cell-based, Escherichia coli MS 200-1; settings: anaerobic, 37°C, 24 h, up to 200 µM
Protocol: as §1

[16] = biological target: T1, purified CutC (choline trimethylamine-lyase) (Oleidesulfovibrio alaskensis, UniProt Q30W70); test: In vitro CutC activity assay coupled to YADH/NADH (absorbance 340 nm); assay type: biochemical, Desulfovibrio desulfuricans G20; settings: 5 nM CutC, 200 µM choline, 20°C, anaerobic
T1 construct: made in house
T1 sequence (Q30W70 53-846): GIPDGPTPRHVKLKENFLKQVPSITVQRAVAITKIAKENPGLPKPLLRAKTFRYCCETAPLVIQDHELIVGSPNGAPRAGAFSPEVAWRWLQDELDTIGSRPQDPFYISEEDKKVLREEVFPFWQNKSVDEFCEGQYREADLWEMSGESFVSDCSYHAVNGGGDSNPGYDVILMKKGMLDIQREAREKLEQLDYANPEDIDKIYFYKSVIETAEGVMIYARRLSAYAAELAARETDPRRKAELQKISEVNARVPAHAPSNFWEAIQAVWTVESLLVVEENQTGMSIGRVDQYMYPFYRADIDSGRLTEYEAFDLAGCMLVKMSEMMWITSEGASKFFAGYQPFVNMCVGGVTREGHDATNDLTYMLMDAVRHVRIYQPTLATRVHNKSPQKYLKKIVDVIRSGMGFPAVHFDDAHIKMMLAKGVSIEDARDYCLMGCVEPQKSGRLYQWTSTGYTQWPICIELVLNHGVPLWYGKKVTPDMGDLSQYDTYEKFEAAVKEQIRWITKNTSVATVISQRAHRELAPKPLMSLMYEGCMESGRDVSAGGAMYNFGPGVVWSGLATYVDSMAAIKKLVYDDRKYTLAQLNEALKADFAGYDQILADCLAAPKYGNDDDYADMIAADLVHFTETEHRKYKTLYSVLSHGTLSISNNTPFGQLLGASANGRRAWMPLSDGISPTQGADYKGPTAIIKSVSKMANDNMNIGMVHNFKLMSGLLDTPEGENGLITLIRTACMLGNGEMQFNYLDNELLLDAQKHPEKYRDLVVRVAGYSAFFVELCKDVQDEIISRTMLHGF
Protocol: To investigate if our compounds were inhibiting CutC directly, we tested their activity toward the purified enzyme. The activity of CutC was determined using a coupled enzyme assay, where the acetaldehyde product from the cleavage of choline to TMA is reduced to ethanol by yeast alcohol dehydrogenase (YADH) using nicotinamide adenine dinucleotide (NADH) as a cofactor. The consumption of NADH results in a change in absorption at 340 nm, and this rate of change of absorption was used to calculate the initial rates of reaction of CutC in the presence of varying concentrations of inhibitors ([14], [65]).
CutC and CutD enzymes from Desulfovibrio desulfuricans G20 were purified, CutC was activated by incubation with CutD, and the amount of glycyl radical installation was quantified as previously described ([15]). The IC50 of compounds was determined in an in vitro CutC activity assay, where CutC activity is coupled to the NADH-dependent enzymatic reduction of acetaldehyde by YADH ([15]). Briefly, assays were conducted in an anaerobic chamber (MBraun) under N2 atmosphere at 20°C. In 50 mM potassium phosphate buffer (pH 8.0, 50 mM KCl), 40 µM of CutD and 150 µM of sodium dithionite were incubated for 20 min before the addition of 200 µM of SAM and 20 µM of CutC monomer. The mixture was incubated for 1 h to activate the glycyl radical enzyme, after which the activated CutC mixture was diluted […] in 50 mM potassium phosphate buffer (pH 8.0, 50 mM KCl). A master mix containing 200 µM NADH, 0.4 µM YADH (Sigma), and the diluted CutC mixture (5 nM final concentration in assay) was prepared and aliquoted into 96-well plates (180 µL per well). Ten microliters of inhibitor or DMSO vehicle was added, followed by 10 µL of aqueous choline chloride solution (final concentration 200 µM). Absorbance was measured at 340 nm immediately after addition of all assay components, with measurements taken every 20 s for 10 min. Initial rates were calculated from absorbance measurements and fitted to Michaelis–Menten equation using nonlinear regression in GraphPad Prism 10 (v. 10.4.0). Background activity was subtracted using no substrate controls, and initial rates for each inhibitor concentration were normalized to no inhibitor controls. IC50 values were obtained by plotting normalized activity values against the logarithm of inhibitor concentration and fitting to a nonlinear regression model in GraphPad Prism 10 (v. 10.4.0).

Cc1ccc(-c2cc(C(=O)NCCCN3CCC(C)CC3)c[nH]2)cc1C [Compound 7]
EC50 (E. coli MS 200-1 [1]): 16 µM
EC50 [2]: 215 µM
EC50 [3]: 80 µM
EC50 [4]: 66 µM
Fold reduction of potency across all four choline-metabolizing bacteria [5]: about 2 fold

Cc1ccc(-c2cc(C(=O)NCCCN3CCC(C)CC3)c(C)n2Cc2ccccc2)cc1C [Compound 19]
EC50 (E. coli MS 200-1 [1]): 28 µM
MIC [6]: > 200 µM
MIC [7]: > 200 µM
MIC [8]: > 200 µM
MIC [9]: 25 µM (≈ 11.4 µg/mL)
MIC [10]: 25 µM (≈ 11.4 µg/mL)
MIC [11]: 50 µM (≈ 22.9 µg/mL)
MIC [12]: 6.25 µM (≈ 2.86 µg/mL)
MIC [13]: 25 µM (≈ 11.4 µg/mL)
EC50 [2]: 4 µM
Bacterial strains with growth inhibited (MIC < 200 µM) [14]: five out of 9
MIC (E. coli MS 200-1 [15]): > 200 µM

Cc1[nH]ccc1C(=O)NCCCN1CCC(C)CC1 [Compound 20]
EC50 (E. coli MS 200-1 [1]): > 125 µM
IC50 [16]: > 125 µM
EC50 in whole cells, C. sporogenes (TMA inhibition) [2]: No inhibition at 312
EC50 in whole cells, P. mirabilis (TMA inhibition) [3]: No inhibition at 312
EC50 in whole cells, A. hydrogenalis (TMA inhibition) [4]: No inhibition at 312

Cc1cccc(-c2cc(C(=O)NCCCN3CCC(C)CC3)c(C)[nH]2)c1 [Compound 23]
EC50 (E. coli MS 200-1 [1]): 5 µM
MIC [6]: > 200 µM
MIC [7]: > 200 µM
MIC [8]: > 200 µM
MIC [9]: > 200 µM
MIC [10]: > 200 µM
MIC [11]: > 200 µM
MIC [12]: 200 µM (≈ 70.7 µg/mL)
MIC [13]: > 200 µM
IC50 [16]: 64 µM
EC50 [2]: 95 µM
EC50 [3]: 46 µM
EC50 [4]: 35 µM
MIC (E. coli MS 200-1 [15]): > 200 µM

Cc1cc(-c2cc(C(=O)NCCCN3CCC(C)CC3)c(C)[nH]2)ccn1 [Compound 26]
EC50 (E. coli MS 200-1 [1]): > 125 µM
IC50 [16]: 45 µM
EC50 in whole cells, C. sporogenes (TMA inhibition) [2]: No inhibition at 312
EC50 [3]: > 312 µM
EC50 in whole cells, A. hydrogenalis (TMA inhibition) [4]: No inhibition at 312

Cc1ccc(-c2cc(C(=O)N(C)CCCN3CCC(C)CC3)c(C)[nH]2)cc1C [Compound 27]
EC50 (E. coli MS 200-1 [1]): > 125 µM
IC50 [16]: 18 µM
EC50 [2]: 12 µM
EC50 [3]: > 312 µM
EC50 [4]: 44 µM

Cc1ccc(-c2cc(C(=O)OCCCN3CCC(C)CC3)c(C)[nH]2)cc1C [Compound 28]
EC50 (E. coli MS 200-1 [1]): 15 µM
Purified CutC IC50 [16]: No inhibition
EC50 [2]: 18 µM
EC50 [3]: > 312 µM
EC50 [4]: 11 µM

Cc1ccc(-c2cc(C(=O)NCCCN3CCOCC3)c(C)[nH]2)cc1C [Compound 37]
Purified CutC IC50 [16]: No inhibition

Cc1ccc(-c2cc(C(=O)NCCCCN3CCCCCC3)c(C)[nH]2)cc1C [Compound 44]
MIC ([6]; Clostridium sporogenes, ATCC15579): > 200 µM
MIC ([7]; Proteus mirabilis, ATCC29906): > 200 µM
MIC ([8]; Bacteroides caccae, ATCC43185): > 200 µM
MIC ([9]; Anaerococcus hydrogenalis, DSM7454): > 200 µM
MIC ([11]; Bacteroides thetaiotaomicron, VPI5482): > 200 µM
MIC ([12]; Collinsella aerofaciens, ATCC25986): > 200 µM
MIC ([13]; Bacteroides ovatus, ATCC8483): > 200 µM
MIC (E. coli MS 200-1 [15]; Escherichia coli, MS2001): > 200 µM
